Holding throughout (format): cell-based
The subject of experiment [1] is E. coli DH5α. In words: Antibacterial activity: MIC and growth curve against E. coli DH5α in 96-well plate. Conditions: minimal inhibitory concentration against E. coli DH5α; 96-well plate, 5×10^5 CFU/mL, 37° C., judged after 8 h. Summed up: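 Log-phase DH5α (OD600 about 0.5, 37° C, 185 rpm in LB) was pelleted, resuspended in fresh LB and seeded at 5×10^5 CFU/mL with recombinant protein at 50, 25 and 12.5 μg/mL (two-fold series), in triplicate. Plates were shaken at 175 rpm, 37° C, and OD600 was read every 30 min. MIC was the lowest concentration with no growth.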

For experiment [2], the system named is E. coli BL21. Description: MIC against Gram-negative bacteria: E. coli BL21. Conditions: 5×10^5 CFU/mL. The procedure, abridged: (§1)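 Bacteria grown in LB at 37° C to McFarland 0.5, resuspended and seeded at 5×10^5 CFU/mL in 96-well plates. Purified human EGF-domain proteins two-fold serially diluted, triplicate wells; cultured at 37° C, shaking 175 rpm. MIC = lowest protein concentration with no growth.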

Experiment [3] has as its system Pseudomonas aeruginosa. In words: MIC against Gram-negative bacteria: Pseudomonas aeruginosa. The settings on record: 5×10^5 CFU/mL. The procedure, abridged:
as §1

The test system of experiment [4] is Klebsiella pneumonia. Description: MIC against Gram-negative bacteria: Klebsiella pneumonia. Conditions: 5×10^5 CFU/mL. Summed up: as §1
The test system of experiment [5] is Enterobacter cloacae. Description: MIC against Gram-negative bacteria: Enterobacter cloacae. The settings on record: 5×10^5 CFU/mL. Summed up: as §1
Experiment [6] has as its system Aeromonas hydrophila. In words: MIC against Gram-negative bacteria: Aeromonas hydrophila. The settings on record: 5×10^5 CFU/mL. Summed up: as §1
In experiment [7] the test system is Citrobacter diversus. In words: MIC against Gram-negative bacteria: Citrobacter diversus. The settings on record: 5×10^5 CFU/mL. Summed up:
as §1

Experiment [8] deals with Moraxella catarrhalis. In words: MIC against Gram-negative bacteria: Moraxella catarrhalis. Conditions: 5×10^5 CFU/mL. Summed up: as §1
Experiment [9] concerns Proteus mirabilis. In words: MIC against Gram-negative bacteria: Proteus mirabilis. The settings on record: 5×10^5 CFU/mL. Summed up: as §1
Experiment [10] has as its system Proteus vulgaris. In words: MIC against Gram-negative bacteria: Proteus vulgaris. Conditions: 5×10^5 CFU/mL. The procedure, abridged:
as §1

Experiment [11] deals with Serratia marcescens. In words: MIC against Gram-negative bacteria: Serratia marcescens. Conditions: 5×10^5 CFU/mL. Summed up:
as §1

Setting [12] is: E. coli BL21, 10 h cultivation at 37° C.
The mark [13] stands for this setting: P. aeruginosa, 10 h cultivation at 37° C.
[14] abbreviates: K. pneumonia, 10 h cultivation at 37° C.
Where [15] appears, read: E. cloacae, 10 h cultivation at 37° C.
Where [16] appears, read: A. hydrophila, 10 h cultivation at 37° C.
The mark [17] stands for this setting: C. diversus, 10 h cultivation at 37° C.
[18] abbreviates: M. catarrhalis, 10 h cultivation at 37° C.
Where [19] appears, read: P. mirabilis, 10 h cultivation at 37° C.
[20] abbreviates: P. vulgaris, 10 h cultivation at 37° C.
[21] abbreviates: S. marcescens, 10 h cultivation at 37° C.
The mark [22] stands for this setting: E. coli BL21, 96-well plate, 37° C., 10 h.
Where [23] appears, read: Pseudomonas aeruginosa, 96-well plate, 37° C., 10 h.
[24] abbreviates: Klebsiella pneumonia, 96-well plate, 37° C., 10 h.
[25] abbreviates: Enterobacter cloacae, 96-well plate, 37° C., 10 h.
The mark [26] stands for this setting: Aeromonas hydrophila, 96-well plate, 37° C., 10 h.
The mark [27] stands for this setting: Citrobacter diversus, 96-well plate, 37° C., 10 h.
The mark [28] stands for this setting: Moraxella catarrhalis, 96-well plate, 37° C., 10 h.
Setting [29] is: Proteus mirabilis, 96-well plate, 37° C., 10 h.
Where [30] appears, read: Proteus vulgaris, 96-well plate, 37° C., 10 h.
Where [31] appears, read: Serratia marcescens, 96-well plate, 37° C., 10 h.

Regarding “PRT796 (SGDFCIPLCTEECVHGRCVSPDTCHCEPGWGGPDCS; listed as Homo sapiens)”, in experiment [1], the MIC (as a rule, the lowest concentration found to suppress growth) amounted to 25 µg/mL. Moreover, the “MIC (μg/mL) E. coli BL21” value in experiment [2] (setting [12]) worked out at 50 µg/mL. Also, the “MIC (μg/mL) P. aeruginosa” value in experiment [3] (setting [13]) amounted to 12.5 µg/mL. The “MIC (μg/mL) K. pneumonia” value in [4] (setting [14]) is 50 µg/mL. In [5] (setting [15]), the “MIC (μg/mL) E. cloacae” value worked out at 50 µg/mL. In addition, in experiment [6] (setting [16]), the “MIC (μg/mL) A. hydrophila” value was 50 µg/mL. Also, the “MIC (μg/mL) C. diversus” value in [7] (setting [17]) stood at 5 µg/mL. Also, the “MIC (μg/mL) M. catarrhalis” value in experiment [8] (setting [18]) turned out to be 50 µg/mL. The “MIC (μg/mL) P. mirabilis” value in experiment [9] (setting [19]) turned out to be 12.5 µg/mL. Moreover, the “MIC (μg/mL) P. vulgaris” value in experiment [10] (setting [20]) turned out to be 50 µg/mL. The “MIC (μg/mL) S. marcescens” value in experiment [11] (setting [21]) turned out to be 50 µg/mL.
For “PRT130 (ITDRCLPSYCEHGGECSQSWDTFSCDCLGTGYTGETCH; listed as Homo sapiens)”, in [1], the MIC came out at 12.5 µg/mL. Also, the “MIC (μg/mL) E. coli BL21” value in experiment [2] (setting [22]) came out at 25 µg/mL. Further, the “MIC (μg/mL) P. aeruginosa” value in experiment [3] (setting [23]) came to 12.5 µg/mL. In [4] (setting [24]), the “MIC (μg/mL) K. pneumonia” value was found to be 25 µg/mL. Also, the “MIC (μg/mL) E. cloacae” value in [5] (setting [25]) is 12.5 µg/mL. In addition, in experiment [6] (setting [26]), the “MIC (μg/mL) A. hydrophila” value is 25 µg/mL. The “MIC (μg/mL) C. diversus” value in [7] (setting [27]) was determined as 50 µg/mL. For the same substance, the “MIC (μg/mL) M. catarrhalis” value in experiment [8] (setting [28]) was found to be 25 µg/mL. Also, the “MIC (μg/mL) P. mirabilis” value in [9] (setting [29]) amounted to 12.5 µg/mL. For the same substance, the “MIC (μg/mL) P. vulgaris” value in experiment [10] (setting [30]) came to 50 µg/mL. Further, the “MIC (μg/mL) S. marcescens” value in experiment [11] (setting [31]) was found to be 12.5 µg/mL.
In turn, “PRT1455 (DWDECVDSAEHDCSPAAWCINLEGSYTCQCRTTRDATPSRAGRACE; listed as Homo sapiens)” yielded a minimal inhibitory concentration (MIC) in experiment [1] of 25 µg/mL. Moreover, in experiment [2] (setting [12]), the “MIC against E. coli BL21” value is 12.5 µg/mL. The “MIC against P. aeruginosa” value in experiment [3] (Pseudomonas aeruginosa, 10 h cultivation at 37° C.) amounted to 25 µg/mL. Moreover, the “MIC against K. pneumonia” value in [4] (Klebsiella pneumonia, 10 h cultivation at 37° C.) was 25 µg/mL. Also, the “MIC against E. cloacae” value in experiment [5] (Enterobacter cloacae, 10 h cultivation at 37° C.) was found to be 12.5 µg/mL. In experiment [6] (Aeromonas hydrophila, 10 h cultivation at 37° C.), the “MIC against A. hydrophila” value is 25 µg/mL. Also, the “MIC against C. diversus” value in experiment [7] (Citrobacter diversus, 10 h cultivation at 37° C.) turned out to be 12.5 µg/mL. The “MIC against M. catarrhalis” value in experiment [8] (Moraxella catarrhalis, 10 h cultivation at 37° C.) came out at 12.5 µg/mL. In experiment [9] (Proteus mirabilis, 10 h cultivation at 37° C.), the “MIC against P. mirabilis” value was 12.5 µg/mL. Also, the “MIC against P. vulgaris” value in experiment [10] (Proteus vulgaris, 10 h cultivation at 37° C.) is 12.5 µg/mL. In addition, in [11] (Serratia marcescens, 10 h cultivation at 37° C.), the “MIC against S. marcescens” value turned out to be 25 µg/mL.
In turn, “PRT462 (DVDECLEGLDDCHYNQLCENTPGGHRCSCPRGYRMQGPS; listed as Homo sapiens)” registered an MIC in experiment [1] of 12.5 µg/mL. The “MIC against E. coli BL21” value in experiment [2] (96-well plate, 37° C., 10 h) is 12.5 µg/mL. Further, the “MIC against P. aeruginosa” value in [3] (96-well plate, 37° C., 10 h) turned out to be 100 µg/mL. The “MIC against K. pneumonia” value in [4] (96-well plate, 37° C., 10 h) was determined as 12.5 µg/mL. Also, in experiment [5] (96-well plate, 37° C., 10 h), the “MIC against E. cloacae” value was determined as 12.5 µg/mL. The “MIC against A. hydrophila” value in experiment [6] (96-well plate, 37° C., 10 h) is 12.5 µg/mL. Moreover, the “MIC against C. diversus” value in experiment [7] (96-well plate, 37° C., 10 h) was 12.5 µg/mL. Besides, in experiment [8] (96-well plate, 37° C., 10 h), the “MIC against M. catarrhalis” value turned out to be 50 µg/mL. In [9] (96-well plate, 37° C., 10 h), the “MIC against P. mirabilis” value worked out at 25 µg/mL. Besides, the “MIC against P. vulgaris” value in experiment [10] (96-well plate, 37° C., 10 h) was 12.5 µg/mL. Also, the “MIC against S. marcescens” value in experiment [11] (96-well plate, 37° C., 10 h) turned out to be 25 µg/mL.
For the substance “PRT141 (DPCENNPCLHGGTCNANGTMYGCSCDQGFAGENCE; listed as Homo sapiens)”, the MIC in experiment [1] is 12.5 µg/mL. For the same substance, the “MIC (μg/mL) E. coli BL21” value in experiment [2] (setting [22]) was determined as 25 µg/mL. Moreover, in [3] (setting [23]), the “MIC (μg/mL) P. aeruginosa” value stood at 12.5 µg/mL. Moreover, the “MIC (μg/mL) K. pneumonia” value in experiment [4] (setting [24]) amounted to 25 µg/mL. Further, the “MIC (μg/mL) E. cloacae” value in experiment [5] (setting [25]) was determined as 12.5 µg/mL. Further, in experiment [6] (setting [26]), the “MIC (μg/mL) A. hydrophila” value was found to be 25 µg/mL. Moreover, the “MIC (μg/mL) C. diversus” value in [7] (setting [27]) worked out at 50 µg/mL. For the same substance, the “MIC (μg/mL) M. catarrhalis” value in [8] (setting [28]) was determined as 12.5 µg/mL. The “MIC (μg/mL) P. mirabilis” value in experiment [9] (setting [29]) stood at 50 µg/mL. The “MIC (μg/mL) P. vulgaris” value in experiment [10] (setting [30]) worked out at 12.5 µg/mL. Moreover, the “MIC (μg/mL) S. marcescens” value in [11] (setting [31]) turned out to be 50 µg/mL.
In the case of “PRT425 (DVDECAMGTHTCQPGFLCQNTKGSFYCQARQRCMDGFLQDPEGNCV; listed as Homo sapiens)”, the MIC was determined as 12.5 µg/mL in [1]; 25 µg/mL in experiment [2] (setting [12]); 50 µg/mL in experiment [3] (setting [13]); 25 µg/mL in experiment [4] (setting [14]); 12.5 µg/mL in [5] (setting [15]); 25 µg/mL in experiment [6] (setting [16]). The MIC came out at 50 µg/mL in experiment [7] (setting [17]); 12.5 µg/mL in experiment [8] (setting [18]); 50 µg/mL in experiment [9] (setting [19]); 12.5 µg/mL in experiment [10] (setting [20]); 50 µg/mL in experiment [11] (setting [21]).

For the origin of these results see patent US9833497B2, “Human originated EGF domain proteins and use of the same” (CHENGDU SOURCEBIO LIMITED-LIABILITY COMPANY, priority 2013, dated 2017).
